≈ marks a conversion by molar mass, not a printed value. Like-named read-outs stand apart in the source and are kept apart here.
Columns and labels:
Assay in all cases: MIC, broth microdilution
[1] = test system: E. coli GC 2236; conditions: Escherichia coli
[2] = test system: E. coli GC 2235; conditions: Escherichia coli
[3] = test system: E. coli GC 2233; conditions: Escherichia coli
[4] = test system: E. coli GC 2234; conditions: Escherichia coli
[5] = test system: E. coli GC 2270; conditions: Escherichia coli
[6] = test system: E. coli GC 2271; conditions: Escherichia coli
[7] = test system: E. coli GC 4559; conditions: Escherichia coli
[8] = test system: E. coli GC 1073; conditions: Escherichia coli
[9] = test system: P. aeruginosa GC 2214; conditions: Pseudomonas aeruginosa
[10] = test system: S. aureus GC 1131; conditions: Staphylococcus aureus
[11] = test system: S. aureus GC 1079; conditions: Staphylococcus aureus
[12] = test system: S. aureus GC 2216; conditions: Staphylococcus aureus
[13] = test system: S. aureus GC 6335; conditions: Staphylococcus aureus
[14] = test system: S. epidermidis GC 4935; conditions: Staphylococcus epidermidis
[15] = test system: E. faecalis GC 2242; conditions: Enterococcus faecalis
[16] = test system: E. faecium GC 4556; conditions: Enterococcus faecium
[17] = test system: S. pneumoniae+ GC 4465; conditions: Streptococcus pneumoniae
[18] = test system: S. pyogenes GC 4563; conditions: Streptococcus pyogenes
[19] = test system: c. albicans GC 3066

COC(=O)N(CC(=O)Nc1cc(N(C)C)c2c(c1O)C(=O)C1=C(O)[C@]3(O)C(=O)C(C(N)=O)=C(O)[C@@H](N(C)C)[C@@H]3C[C@@H]1C2)C(C)(C)C [Example 60, methyl 2-{[(5aR,6aS,7S,10aS)-9-(aminocarbonyl)-4,7-bis(dimethylamino)-1,8,10a,11-tetrahydroxy-10,12-dioxo-5,5a,6,6a,7,10,10a,12-octahydrotetracen-2-yl]amino}-2-oxoethyl(tert-butyl)carbamate]
MIC ([1]; GC2236, read-out: MINIMAL INHIBITORY CONCENTRATION MIC, Human Serum): > 64 µg/mL
MIC ([1]; GC2236, read-out: MINIMAL INHIBITORY CONCENTRATION MIC, Mouse Serum): > 64 µg/mL
MIC ([1]; GC2236, read-out: MINIMAL INHIBITORY CONCENTRATION MIC, Water): > 64 µg/mL
MIC ([2]; GC2235, read-out: MINIMAL INHIBITORY CONCENTRATION MIC, Human Serum): 64 µg/mL (≈ 99.4 µM)
MIC ([2]; GC2235, read-out: MINIMAL INHIBITORY CONCENTRATION MIC, Mouse Serum): 64 µg/mL (≈ 99.4 µM)
MIC ([2]; GC2235, read-out: MINIMAL INHIBITORY CONCENTRATION MIC, Water): > 64 µg/mL
MIC ([3]; GC2233, read-out: MINIMAL INHIBITORY CONCENTRATION MIC, Human Serum): > 64 µg/mL
MIC ([3]; GC2233, read-out: MINIMAL INHIBITORY CONCENTRATION MIC, Mouse Serum): > 64 µg/mL
MIC ([3]; GC2233, read-out: MINIMAL INHIBITORY CONCENTRATION MIC, Water): > 64 µg/mL
MIC ([4]; GC2234, read-out: MINIMAL INHIBITORY CONCENTRATION MIC, Human Serum): > 64 µg/mL
MIC ([4]; GC2234, read-out: MINIMAL INHIBITORY CONCENTRATION MIC, Mouse Serum): > 64 µg/mL
MIC ([4]; GC2234, read-out: MINIMAL INHIBITORY CONCENTRATION MIC, Water): > 64 µg/mL
MIC ([5]; GC2270, read-out: MINIMAL INHIBITORY CONCENTRATION MIC, Human Serum): > 64 µg/mL
MIC ([5]; GC2270, read-out: MINIMAL INHIBITORY CONCENTRATION MIC, Mouse Serum): > 64 µg/mL
MIC ([5]; GC2270, read-out: MINIMAL INHIBITORY CONCENTRATION MIC, Water): > 64 µg/mL
MIC ([6]; GC2271, read-out: MINIMAL INHIBITORY CONCENTRATION MIC, Human Serum): 64 µg/mL (≈ 99.4 µM)
MIC ([6]; GC2271, read-out: MINIMAL INHIBITORY CONCENTRATION MIC, Mouse Serum): 64 µg/mL (≈ 99.4 µM)
MIC ([6]; GC2271, read-out: MINIMAL INHIBITORY CONCENTRATION MIC, Water): > 64 µg/mL
MIC ([7]; GC4559, read-out: MINIMAL INHIBITORY CONCENTRATION MIC, Human Serum): > 64 µg/mL
MIC ([7]; GC4559, read-out: MINIMAL INHIBITORY CONCENTRATION MIC, Mouse Serum): > 64 µg/mL
MIC ([7]; GC4559, read-out: MINIMAL INHIBITORY CONCENTRATION MIC, Water): > 64 µg/mL
MIC ([8]; GC1073, read-out: MINIMAL INHIBITORY CONCENTRATION MIC, Human Serum): > 64 µg/mL
MIC ([8]; GC1073, read-out: MINIMAL INHIBITORY CONCENTRATION MIC, Mouse Serum): > 64 µg/mL
MIC ([8]; GC1073, read-out: MINIMAL INHIBITORY CONCENTRATION MIC, Water): > 64 µg/mL
MIC ([9]; GC2214, read-out: MINIMAL INHIBITORY CONCENTRATION MIC, Human Serum): > 64 µg/mL
MIC ([9]; GC2214, read-out: MINIMAL INHIBITORY CONCENTRATION MIC, Mouse Serum): > 64 µg/mL
MIC ([9]; GC2214, read-out: MINIMAL INHIBITORY CONCENTRATION MIC, Water): > 64 µg/mL
MIC ([10]; GC1131, read-out: MINIMAL INHIBITORY CONCENTRATION MIC, Human Serum): 2 µg/mL (≈ 3.11 µM)
MIC ([10]; GC1131, read-out: MINIMAL INHIBITORY CONCENTRATION MIC, Mouse Serum): 2 µg/mL (≈ 3.11 µM)
MIC ([10]; GC1131, read-out: MINIMAL INHIBITORY CONCENTRATION MIC, Water): 8 µg/mL (≈ 12.4 µM)
MIC ([11]; GC1079, read-out: MINIMAL INHIBITORY CONCENTRATION MIC, Human Serum): 2 µg/mL (≈ 3.11 µM)
MIC ([11]; GC1079, read-out: MINIMAL INHIBITORY CONCENTRATION MIC, Mouse Serum): 2 µg/mL (≈ 3.11 µM)
MIC ([11]; GC1079, read-out: MINIMAL INHIBITORY CONCENTRATION MIC, Water): 4 µg/mL (≈ 6.21 µM)
MIC ([12]; GC2216, read-out: MINIMAL INHIBITORY CONCENTRATION MIC, Human Serum): 2 µg/mL (≈ 3.11 µM)
MIC ([12]; GC2216, read-out: MINIMAL INHIBITORY CONCENTRATION MIC, Mouse Serum): 2 µg/mL (≈ 3.11 µM)
MIC ([12]; GC2216, read-out: MINIMAL INHIBITORY CONCENTRATION MIC, Water): 4 µg/mL (≈ 6.21 µM)
MIC ([13]; GC6335, read-out: MINIMAL INHIBITORY CONCENTRATION MIC, Human Serum): 8 µg/mL (≈ 12.4 µM)
MIC ([13]; GC6335, read-out: MINIMAL INHIBITORY CONCENTRATION MIC, Mouse Serum): 8 µg/mL (≈ 12.4 µM)
MIC ([13]; GC6335, read-out: MINIMAL INHIBITORY CONCENTRATION MIC, Water): 8 µg/mL (≈ 12.4 µM)
MIC ([14]; GC4935, read-out: MINIMAL INHIBITORY CONCENTRATION MIC, Human Serum): 8 µg/mL (≈ 12.4 µM)
MIC ([14]; GC4935, read-out: MINIMAL INHIBITORY CONCENTRATION MIC, Mouse Serum): 8 µg/mL (≈ 12.4 µM)
MIC ([14]; GC4935, read-out: MINIMAL INHIBITORY CONCENTRATION MIC, Water): 16 µg/mL (≈ 24.9 µM)
MIC ([15]; GC2242, read-out: MINIMAL INHIBITORY CONCENTRATION MIC, Human Serum): 4 µg/mL (≈ 6.21 µM)
MIC ([15]; GC2242, read-out: MINIMAL INHIBITORY CONCENTRATION MIC, Mouse Serum): 8 µg/mL (≈ 12.4 µM)
MIC ([15]; GC2242, read-out: MINIMAL INHIBITORY CONCENTRATION MIC, Water): 8 µg/mL (≈ 12.4 µM)
MIC ([16]; GC4556, read-out: MINIMAL INHIBITORY CONCENTRATION MIC, Human Serum): 4 µg/mL (≈ 6.21 µM)
MIC ([16]; GC4556, read-out: MINIMAL INHIBITORY CONCENTRATION MIC, Mouse Serum): 4 µg/mL (≈ 6.21 µM)
MIC ([16]; GC4556, read-out: MINIMAL INHIBITORY CONCENTRATION MIC, Water): 4 µg/mL (≈ 6.21 µM)
MIC ([17]; read-out: MINIMAL INHIBITORY CONCENTRATION MIC, Human Serum): 2 µg/mL (≈ 3.11 µM)
MIC ([17]; read-out: MINIMAL INHIBITORY CONCENTRATION MIC, Mouse Serum): 4 µg/mL (≈ 6.21 µM)
MIC ([17]; read-out: MINIMAL INHIBITORY CONCENTRATION MIC, Water): 4 µg/mL (≈ 6.21 µM)
MIC ([18]; GC4563, read-out: MINIMAL INHIBITORY CONCENTRATION MIC, Human Serum): 0.5 µg/mL (≈ 0.777 µM)
MIC ([18]; GC4563, read-out: MINIMAL INHIBITORY CONCENTRATION MIC, Mouse Serum): 1 µg/mL (≈ 1.55 µM)
MIC ([18]; GC4563, read-out: MINIMAL INHIBITORY CONCENTRATION MIC, Water): 2 µg/mL (≈ 3.11 µM)
MIC ([19]; Candida albicans, GC3066, read-out: MINIMAL INHIBITORY CONCENTRATION MIC): > 64 µg/mL
MINIMAL INHIBITORY CONCENTRATION MIC ([19]; Human Serum): >64 UG/ML
MINIMAL INHIBITORY CONCENTRATION MIC ([19]; Mouse Serum): >64 UG/ML
